In ChEMBL document CHEMBL1201862, “PubChem BioAssay data set” (2004):
Active and inactive are the calls of the source.

Assays:
[1] = SAR analysis of small molecule activators of Apaf-1 using a LZ-Caspase-9/Caspase-3 Fluorescent Selectivity assay - Set 2.; assay type: functional; settings: read-out: EC50_Mean
[2] = target: T1, Apoptotic protease-activating factor 1 (Homo sapiens, UniProt O14727); test: SAR analysis of small molecule Activators of Apaf-1 in a Fluorescent assay - set 2.; assay type: functional; settings: read-out: EC50_Mean
T1 sequence (O14727 whole entry): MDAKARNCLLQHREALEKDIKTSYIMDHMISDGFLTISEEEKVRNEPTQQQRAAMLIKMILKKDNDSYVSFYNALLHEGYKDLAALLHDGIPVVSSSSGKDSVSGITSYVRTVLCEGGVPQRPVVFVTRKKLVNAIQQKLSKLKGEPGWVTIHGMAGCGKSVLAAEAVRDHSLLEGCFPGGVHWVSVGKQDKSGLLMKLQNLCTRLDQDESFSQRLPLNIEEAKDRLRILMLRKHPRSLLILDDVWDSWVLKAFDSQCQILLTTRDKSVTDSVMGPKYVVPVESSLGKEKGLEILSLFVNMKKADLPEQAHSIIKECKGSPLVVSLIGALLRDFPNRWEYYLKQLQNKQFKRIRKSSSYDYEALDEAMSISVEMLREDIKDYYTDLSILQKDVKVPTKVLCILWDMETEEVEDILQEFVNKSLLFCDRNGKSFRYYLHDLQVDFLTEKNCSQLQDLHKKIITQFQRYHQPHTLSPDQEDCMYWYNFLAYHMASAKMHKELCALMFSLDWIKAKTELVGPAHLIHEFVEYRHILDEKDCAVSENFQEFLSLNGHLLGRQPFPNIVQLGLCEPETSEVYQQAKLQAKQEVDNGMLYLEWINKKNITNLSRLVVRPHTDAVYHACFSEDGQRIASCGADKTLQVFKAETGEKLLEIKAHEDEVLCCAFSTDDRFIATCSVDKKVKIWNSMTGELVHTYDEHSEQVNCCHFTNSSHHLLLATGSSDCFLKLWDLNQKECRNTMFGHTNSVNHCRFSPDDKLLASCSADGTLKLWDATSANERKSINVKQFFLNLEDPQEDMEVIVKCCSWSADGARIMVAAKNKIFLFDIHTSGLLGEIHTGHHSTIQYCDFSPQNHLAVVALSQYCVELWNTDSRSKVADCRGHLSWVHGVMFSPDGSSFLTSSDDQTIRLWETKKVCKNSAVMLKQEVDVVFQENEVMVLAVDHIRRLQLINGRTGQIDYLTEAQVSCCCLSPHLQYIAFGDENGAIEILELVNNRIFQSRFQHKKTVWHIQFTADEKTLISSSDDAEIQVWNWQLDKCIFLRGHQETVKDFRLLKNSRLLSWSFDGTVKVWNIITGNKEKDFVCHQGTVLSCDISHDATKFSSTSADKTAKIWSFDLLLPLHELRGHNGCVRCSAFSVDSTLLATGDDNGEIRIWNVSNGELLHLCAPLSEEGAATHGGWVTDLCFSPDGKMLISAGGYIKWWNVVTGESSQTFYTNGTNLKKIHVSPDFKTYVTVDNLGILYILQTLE

[3] = target: T2, Orexin/Hypocretin receptor type 1 (Homo sapiens, UniProt O43613); test: Homogeneous Time Resolved Fluorescence (HTRF)-based cell-based high throughput dose response assay for antagonists of the orexin 1 receptor (OX1R; HCRTR1). [Related pubchem assays (depositor defined):AID434989, AID435008, AID463079, AID485270, AID492963, AID492964, AID492965, AID493232, AID504717, AID504718]; assay type: functional
[4] = tested on: CHO-K1; test: (§1) Counterscreen for antagonists of the orexin 1 receptor (OX1R; HCRTR1): Homogeneous time resolved fluorescence (HTRF)-based cell-based dose response assay to identify antagonists of the parental CHO-K1 cell line. [Related pubchem assays (depositor defined):AID434989, AID435008, AID463079, AID485270, AID492963, AID492964, AID492965, AID493232, AID504699, AID504701]; assay type: functional; settings: Cricetulus griseus
[5] = target: T3, Orexin receptor type 2 (Homo sapiens, UniProt O43614); test: Counterscreen assay for antagonists of the orexin 1 receptor (OX1R; HCRTR1): Homogeneous Time Resolved Fluorescence (HTRF)-based cell-based dose response assay for antagonists of the orexin 2 receptor (OX2R; HCRTR2), run by assay provider.; assay type: functional
[6] = target: T2, Orexin/Hypocretin receptor type 1; test: Fluorescence-based cell-based high throughput dose response assay for antagonists of the orexin 1 receptor (OX1R; HCRTR1). [Related pubchem assays (depositor defined):AID434989, AID435008, AID463079, AID485270, AID492963, AID492964, AID492965, AID493232, AID504717, AID504718]; assay type: functional
[7] = as §1, with “Fluorescence-based” for “Homogeneous time resolved fluorescence (HTRF)-based”, “cell-based high throughput” for “cell-based”, “CHO” for “CHO-K1”; assay type: functional
[8] = target: T3, Orexin receptor type 2; test: Counterscreen assay for antagonists of the orexin 1 receptor (OX1R; HCRTR1): Fluorescence-based cell-based dose response assay for antagonists of the orexin 2 receptor (OX2R; HCRTR2), run by assay provider.; assay type: functional
[9] = target: Protein disulfide-isomerase (Homo sapiens, UniProt P07237); test: inhibition of PDI-driven insulin aggregation – biochemical, turbidity, absorbance, cherry-picked samples, dose response (AID 602350); assay type: functional
[10] = target: T4, Voltage-gated N-type calcium channel alpha-1B subunit/Amyloid beta A4 precursor protein-binding family A member 1 (Homo sapiens, UniProt Q00975+Q02410); assay type: protein assay
[11] = target: T5, Histone-lysine N-methyltransferase NSD2 (Homo sapiens, UniProt O96028); assay type: biochemical
T5 sequence (O96028 whole entry): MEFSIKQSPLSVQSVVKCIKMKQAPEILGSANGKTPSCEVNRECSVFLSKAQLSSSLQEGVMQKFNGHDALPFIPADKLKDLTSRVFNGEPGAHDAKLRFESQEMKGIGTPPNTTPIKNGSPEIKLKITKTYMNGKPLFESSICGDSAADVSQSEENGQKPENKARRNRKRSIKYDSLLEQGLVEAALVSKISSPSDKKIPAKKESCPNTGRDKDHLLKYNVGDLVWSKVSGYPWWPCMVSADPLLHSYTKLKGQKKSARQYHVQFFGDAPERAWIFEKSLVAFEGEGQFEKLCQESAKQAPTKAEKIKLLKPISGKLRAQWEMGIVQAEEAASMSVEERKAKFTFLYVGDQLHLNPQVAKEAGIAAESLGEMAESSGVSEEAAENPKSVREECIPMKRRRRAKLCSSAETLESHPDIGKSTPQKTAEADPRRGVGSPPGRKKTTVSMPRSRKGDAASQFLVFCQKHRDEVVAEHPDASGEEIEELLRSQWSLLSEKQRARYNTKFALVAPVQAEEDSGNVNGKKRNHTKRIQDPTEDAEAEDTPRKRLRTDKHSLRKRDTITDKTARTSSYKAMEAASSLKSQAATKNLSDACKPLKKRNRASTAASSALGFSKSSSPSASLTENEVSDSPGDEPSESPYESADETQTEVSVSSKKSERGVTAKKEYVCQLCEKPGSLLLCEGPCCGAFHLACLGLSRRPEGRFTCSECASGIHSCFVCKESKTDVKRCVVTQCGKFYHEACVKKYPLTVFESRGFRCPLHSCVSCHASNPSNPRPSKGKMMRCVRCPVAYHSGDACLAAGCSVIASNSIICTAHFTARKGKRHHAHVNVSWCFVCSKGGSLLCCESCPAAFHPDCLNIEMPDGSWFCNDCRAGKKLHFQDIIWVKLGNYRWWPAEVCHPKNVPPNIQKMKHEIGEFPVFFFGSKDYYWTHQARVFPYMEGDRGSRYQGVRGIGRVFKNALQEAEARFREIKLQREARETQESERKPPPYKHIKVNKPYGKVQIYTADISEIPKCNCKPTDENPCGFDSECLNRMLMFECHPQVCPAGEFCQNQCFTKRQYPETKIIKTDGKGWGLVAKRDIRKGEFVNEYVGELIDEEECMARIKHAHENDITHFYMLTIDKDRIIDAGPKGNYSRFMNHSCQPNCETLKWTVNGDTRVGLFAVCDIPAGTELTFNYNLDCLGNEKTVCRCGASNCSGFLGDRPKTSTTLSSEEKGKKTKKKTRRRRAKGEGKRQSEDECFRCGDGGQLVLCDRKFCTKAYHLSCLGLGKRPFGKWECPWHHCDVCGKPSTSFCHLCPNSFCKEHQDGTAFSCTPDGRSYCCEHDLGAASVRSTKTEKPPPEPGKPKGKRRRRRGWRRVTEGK

[12] = target: T6, Carboxy-terminal domain RNA polymerase II polypeptide A small phosphatase 1 (Homo sapiens, UniProt Q9GZU7); test: CTDSP1 inhibitors, concentration-response, biochemical, absorbance readout, ultra-high-throughput screen actives (AID 540297); assay type: functional
T6 sequence (Q9GZU7 whole entry): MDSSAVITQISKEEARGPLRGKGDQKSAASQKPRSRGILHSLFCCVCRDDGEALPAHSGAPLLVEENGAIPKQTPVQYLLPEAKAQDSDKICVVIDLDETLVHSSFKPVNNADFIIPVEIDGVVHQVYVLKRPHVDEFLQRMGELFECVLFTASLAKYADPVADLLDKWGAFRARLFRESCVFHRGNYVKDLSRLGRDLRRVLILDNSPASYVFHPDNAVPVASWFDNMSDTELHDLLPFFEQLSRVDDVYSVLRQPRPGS

[13] = cAMP pathway inhibition in counterscreen cell line – TR-FRET cAMP detection, counter-screen for MC4R biased antagonist project, dose response (AID 602305); assay type: functional, cell-based;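 also: U2OS cells stimulated with forskolin near its EC80 as the cAMP inducer; potency is for inhibition of forskolin-stimulated cAMP signaling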
[14] = target: Neurotensin receptor type 1 (Homo sapiens, UniProt P30989); assay type: functional;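 also: Image-based confirmatory dose-response assay measuring agonist activity at NTR1; NTR1-expressing U2OS osteosarcoma cells imaged for beta-arrestin GFP spot formation; agonist potency where compounds increase beta-arrestin recruitment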
[15] = target: Melanocortin receptor 4 (Homo sapiens, UniProt P32245); test: inhibitors of MC4R cAMP signaling – cell-based, TR-FRET, biased antagonists, dose response (AID 602298); assay type: functional;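 also: antagonist potency against agonist-stimulated cAMP production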
[16] = target: T4, Voltage-gated N-type calcium channel alpha-1B subunit/Amyloid beta A4 precursor protein-binding family A member 1; assay type: protein assay; remark: listed apart in the source

T3 sequence (O43614 whole entry): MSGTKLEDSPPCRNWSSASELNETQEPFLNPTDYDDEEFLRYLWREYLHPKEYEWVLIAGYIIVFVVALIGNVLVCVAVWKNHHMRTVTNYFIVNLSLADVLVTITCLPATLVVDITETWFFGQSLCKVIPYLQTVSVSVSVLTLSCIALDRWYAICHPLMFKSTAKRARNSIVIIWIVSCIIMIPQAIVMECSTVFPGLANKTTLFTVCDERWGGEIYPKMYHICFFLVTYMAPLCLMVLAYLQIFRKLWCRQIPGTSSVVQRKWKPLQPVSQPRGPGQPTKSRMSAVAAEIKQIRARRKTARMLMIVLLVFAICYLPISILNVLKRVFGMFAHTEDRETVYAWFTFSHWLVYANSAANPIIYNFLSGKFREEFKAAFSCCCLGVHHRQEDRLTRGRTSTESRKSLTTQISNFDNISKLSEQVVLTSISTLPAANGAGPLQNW
T2 sequence (O43613 whole entry): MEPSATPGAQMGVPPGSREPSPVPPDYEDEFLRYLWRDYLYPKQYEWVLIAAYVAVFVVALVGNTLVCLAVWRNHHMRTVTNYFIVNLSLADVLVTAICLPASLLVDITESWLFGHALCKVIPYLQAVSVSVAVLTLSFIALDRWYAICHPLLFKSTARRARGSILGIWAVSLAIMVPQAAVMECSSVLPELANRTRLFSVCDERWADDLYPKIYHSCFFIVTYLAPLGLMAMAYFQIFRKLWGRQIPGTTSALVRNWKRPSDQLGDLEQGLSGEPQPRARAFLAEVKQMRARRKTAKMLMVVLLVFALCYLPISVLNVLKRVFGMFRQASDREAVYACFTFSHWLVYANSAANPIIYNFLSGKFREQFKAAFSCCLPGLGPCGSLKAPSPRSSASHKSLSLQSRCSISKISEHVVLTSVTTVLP
T4 sequence (Q00975 whole entry): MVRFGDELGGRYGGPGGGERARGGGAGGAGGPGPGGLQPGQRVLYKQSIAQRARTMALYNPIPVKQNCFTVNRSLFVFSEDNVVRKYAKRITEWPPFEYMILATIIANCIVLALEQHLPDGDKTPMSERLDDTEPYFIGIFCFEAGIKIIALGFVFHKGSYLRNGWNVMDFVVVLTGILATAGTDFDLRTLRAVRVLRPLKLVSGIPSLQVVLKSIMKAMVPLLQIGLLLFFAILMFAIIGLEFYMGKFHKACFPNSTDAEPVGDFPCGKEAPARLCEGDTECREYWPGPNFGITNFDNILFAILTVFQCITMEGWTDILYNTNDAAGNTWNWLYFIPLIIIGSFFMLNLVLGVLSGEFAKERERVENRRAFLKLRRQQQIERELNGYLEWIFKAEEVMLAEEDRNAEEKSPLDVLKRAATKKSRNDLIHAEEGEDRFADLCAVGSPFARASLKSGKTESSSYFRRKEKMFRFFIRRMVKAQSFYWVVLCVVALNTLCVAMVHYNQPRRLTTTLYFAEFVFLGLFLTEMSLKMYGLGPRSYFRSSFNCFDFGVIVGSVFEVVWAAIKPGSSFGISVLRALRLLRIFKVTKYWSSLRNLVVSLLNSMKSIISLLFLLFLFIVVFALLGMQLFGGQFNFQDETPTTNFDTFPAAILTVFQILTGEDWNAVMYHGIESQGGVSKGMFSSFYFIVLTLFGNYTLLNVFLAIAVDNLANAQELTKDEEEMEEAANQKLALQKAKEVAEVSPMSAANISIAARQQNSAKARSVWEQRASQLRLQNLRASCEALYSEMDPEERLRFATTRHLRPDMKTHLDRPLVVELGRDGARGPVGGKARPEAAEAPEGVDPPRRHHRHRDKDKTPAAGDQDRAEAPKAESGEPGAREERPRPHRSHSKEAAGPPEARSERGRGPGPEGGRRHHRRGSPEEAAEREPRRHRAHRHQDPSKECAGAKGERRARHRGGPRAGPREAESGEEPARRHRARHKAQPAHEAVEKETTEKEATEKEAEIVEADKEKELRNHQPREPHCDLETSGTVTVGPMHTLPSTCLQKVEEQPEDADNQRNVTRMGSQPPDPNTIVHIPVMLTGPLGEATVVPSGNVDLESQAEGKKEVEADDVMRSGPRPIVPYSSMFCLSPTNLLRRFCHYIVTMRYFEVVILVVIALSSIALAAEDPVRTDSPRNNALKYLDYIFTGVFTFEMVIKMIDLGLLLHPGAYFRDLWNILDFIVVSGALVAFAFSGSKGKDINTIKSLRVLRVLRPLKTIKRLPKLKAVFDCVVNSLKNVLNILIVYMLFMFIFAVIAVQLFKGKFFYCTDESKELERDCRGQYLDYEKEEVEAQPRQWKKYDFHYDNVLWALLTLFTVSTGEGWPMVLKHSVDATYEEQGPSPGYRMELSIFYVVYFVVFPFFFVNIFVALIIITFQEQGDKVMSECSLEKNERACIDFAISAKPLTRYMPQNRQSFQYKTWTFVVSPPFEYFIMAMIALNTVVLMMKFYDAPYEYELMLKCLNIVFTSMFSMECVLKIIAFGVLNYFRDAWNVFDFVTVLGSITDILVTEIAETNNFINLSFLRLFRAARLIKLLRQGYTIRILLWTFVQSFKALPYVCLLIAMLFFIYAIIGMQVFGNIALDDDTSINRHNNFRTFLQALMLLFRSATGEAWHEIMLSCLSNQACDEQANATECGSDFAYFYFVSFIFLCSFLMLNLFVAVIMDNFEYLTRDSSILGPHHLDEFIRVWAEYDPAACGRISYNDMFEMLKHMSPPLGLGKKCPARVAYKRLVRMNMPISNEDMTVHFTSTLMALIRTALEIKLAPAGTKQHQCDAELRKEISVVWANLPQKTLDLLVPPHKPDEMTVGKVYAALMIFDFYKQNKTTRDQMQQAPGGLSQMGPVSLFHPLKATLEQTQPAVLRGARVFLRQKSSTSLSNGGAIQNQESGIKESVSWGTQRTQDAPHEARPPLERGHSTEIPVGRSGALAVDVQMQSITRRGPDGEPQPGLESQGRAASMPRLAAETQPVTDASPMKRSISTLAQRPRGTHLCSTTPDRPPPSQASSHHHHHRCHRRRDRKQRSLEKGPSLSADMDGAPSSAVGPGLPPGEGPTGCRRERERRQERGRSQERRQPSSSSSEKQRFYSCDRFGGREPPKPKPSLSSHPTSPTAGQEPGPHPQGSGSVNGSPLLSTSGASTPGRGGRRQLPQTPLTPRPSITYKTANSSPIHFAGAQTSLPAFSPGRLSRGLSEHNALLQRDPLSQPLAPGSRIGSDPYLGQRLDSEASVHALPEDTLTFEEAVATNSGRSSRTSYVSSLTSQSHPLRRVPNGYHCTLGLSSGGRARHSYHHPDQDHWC
T4 sequence (Q02410 whole entry): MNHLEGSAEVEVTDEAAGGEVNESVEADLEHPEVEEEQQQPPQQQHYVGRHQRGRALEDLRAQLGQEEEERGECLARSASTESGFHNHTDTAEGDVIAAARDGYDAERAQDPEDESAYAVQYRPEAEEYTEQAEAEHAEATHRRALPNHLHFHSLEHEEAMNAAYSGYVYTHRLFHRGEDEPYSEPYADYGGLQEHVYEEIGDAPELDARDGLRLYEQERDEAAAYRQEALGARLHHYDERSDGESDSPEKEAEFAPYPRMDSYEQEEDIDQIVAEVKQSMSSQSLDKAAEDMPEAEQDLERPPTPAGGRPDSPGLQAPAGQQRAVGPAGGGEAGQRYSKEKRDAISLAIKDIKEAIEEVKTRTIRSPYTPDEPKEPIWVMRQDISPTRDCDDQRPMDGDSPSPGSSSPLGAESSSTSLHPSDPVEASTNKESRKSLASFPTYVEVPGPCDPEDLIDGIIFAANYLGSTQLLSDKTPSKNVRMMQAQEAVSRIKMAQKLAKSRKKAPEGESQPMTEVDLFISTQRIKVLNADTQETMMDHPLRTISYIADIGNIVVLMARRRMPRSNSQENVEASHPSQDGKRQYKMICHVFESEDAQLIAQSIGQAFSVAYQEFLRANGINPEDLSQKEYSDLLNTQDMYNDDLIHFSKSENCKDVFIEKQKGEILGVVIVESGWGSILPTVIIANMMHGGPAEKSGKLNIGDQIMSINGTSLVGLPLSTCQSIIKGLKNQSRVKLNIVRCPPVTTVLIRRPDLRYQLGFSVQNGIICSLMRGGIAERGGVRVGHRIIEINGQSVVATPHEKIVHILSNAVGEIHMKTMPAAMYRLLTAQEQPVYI
Chain of Neurotensin receptor type 1 (P30989 whole entry): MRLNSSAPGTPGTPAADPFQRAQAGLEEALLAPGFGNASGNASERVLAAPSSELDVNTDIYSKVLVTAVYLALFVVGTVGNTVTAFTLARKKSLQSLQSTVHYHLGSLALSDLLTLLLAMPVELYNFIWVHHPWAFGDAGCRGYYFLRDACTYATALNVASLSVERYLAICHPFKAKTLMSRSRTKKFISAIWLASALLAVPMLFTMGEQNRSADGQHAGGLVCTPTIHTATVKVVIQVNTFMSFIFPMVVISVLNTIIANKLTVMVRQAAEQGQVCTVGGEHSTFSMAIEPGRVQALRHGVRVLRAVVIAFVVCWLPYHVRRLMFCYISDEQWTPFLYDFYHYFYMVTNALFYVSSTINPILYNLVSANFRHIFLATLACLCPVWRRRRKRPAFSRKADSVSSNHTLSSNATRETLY
Chain of Protein disulfide-isomerase (P07237 whole entry): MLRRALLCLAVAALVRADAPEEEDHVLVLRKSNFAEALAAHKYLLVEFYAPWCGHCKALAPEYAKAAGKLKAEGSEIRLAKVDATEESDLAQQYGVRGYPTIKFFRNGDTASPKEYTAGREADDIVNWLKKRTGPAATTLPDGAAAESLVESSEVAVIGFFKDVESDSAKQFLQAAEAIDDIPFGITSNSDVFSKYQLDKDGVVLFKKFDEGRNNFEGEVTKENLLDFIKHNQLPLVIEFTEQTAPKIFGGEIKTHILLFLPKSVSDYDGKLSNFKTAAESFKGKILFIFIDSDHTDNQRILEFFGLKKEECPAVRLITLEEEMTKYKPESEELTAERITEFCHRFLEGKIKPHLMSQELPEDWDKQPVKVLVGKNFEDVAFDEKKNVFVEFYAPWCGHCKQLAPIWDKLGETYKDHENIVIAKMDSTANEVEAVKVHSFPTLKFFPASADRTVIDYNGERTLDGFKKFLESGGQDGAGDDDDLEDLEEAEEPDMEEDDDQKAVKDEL

CC(CNC(C)c1ccccc1)C(=O)O (stereo unspecified)
EC50 [1]: > 100 µM (inactive)
EC50 [2]: 80.6 µM (active)

Cc1ccc(/C=C2/Sc3ccccc3N(CC(=O)NCC3CCCO3)C2=O)cc1 (stereo unspecified)
IC50 [3]: 1.77 µM (active)
IC50 [4]: > 66.2 µM (inactive)
IC50 [5]: > 50 µM (inactive)
IC50 [6]: 5.59 µM (active)
IC50 [7]: > 49.8 µM (inactive)
IC50 [8]: 29.8 µM (inactive)

C/C=C(\C)C(=O)NCCN1C2=NC[C@H](Cc3ccc(O)cc3)N2C[C@H]1Cc1ccc(O)cc1
AC50 [9]: 15.4 µM (active)

O=C1NC(=O)C(=Cc2ccc(SC3CCCCC3)o2)C(=O)N1
IC50 [10]: 14.5 µM (active)
AC50 [11]: > 20 µM (inactive)
IC50 [12]: 5.67 µM (active)
IC50 [13]: > 64.6 µM (inactive)
EC50 [14]: 12.7 µM (active)
IC50 [15]: > 21.5 µM (inactive)
IC50 [16]: > 50 µM (inactive)
